From US9828350B2, “5,6-dihydro-2H-[1,4]oxazin-3-yl-amine derivatives useful as inhibitors of beta-secretase (BACE)” (Janssen Pharmaceutica NV, priority 2010, dated 2017)
Where two headings read alike, the source gives them in different places.

How the values were obtained:
Abeta total = test: Cellular αLisa assay in SKNBE2 cells, Abeta total; assay type: cell-based, human; details: Homo sapiens, SKNBE2, 18 h, incubated for 18 hours, read-out: Cellular αLisa assay in SKNBE2 cells Abetatotal pIC50 (converted)
How it was run: (§1)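 Secreted Abeta levels were measured by sandwich αLisa, pairing biotin-AbN/25 donor beads with Ab4G8 acceptor beads for total Abeta or cAb42/26 for Abeta 1-42, read at 615 nm after 650 nm excitation following 1 hour. Cells were SKNBE2 expressing wild-type hAPP695, exposed to compound for 18 hours.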

Abeta 1-42 [1] = details: 20 mg/kg, 24 h
Abeta 1-40 = details: 20 mg/kg, 24 h
Aβ42 = test: Demonstration of in vivo efficacy, brain Aβ42 lowering (ELISA); details: mouse brain, 30 mpk, s.c., 4 h
Aβtotal = test: Demonstration of in vivo efficacy, brain Aβtotal lowering (ELISA); details: mouse brain, 30 mpk, s.c., 4 h
[2] = Single dose pharmacology in the Beagle dog, pharmacokinetic (PK) follow up; assay type: in vivo; details: single dose 20 mg/kg; for concentration at 24 h: both sexes
Experimental: Single Dose Pharmacology in the Beagle Dog
Compound 86 was tested to evaluate the effect on the beta-amyloid profile in cerebrospinal fluid (CSF) of dogs after a single dose, in combination with pharmacokinetic (PK) follow up and limited safety evaluation. 6 Beagle dogs (3 male, 3 female) were dosed with vehicle (4 ml/kg of an aqueous suspension of 20% cyclodextrin and Tween) and 6 Beagle dogs (3 male, 3 female) were dosed with compound 86 (20 mg/kg in 2 ml/kg of an aqueous 20% cyclodextrin solution) on an empty stomach. CSF was taken in conscious animals directly from the lateral ventricle via a cannula which was screwed in the skull and covered with subcutaneous tissue and skin, before and at 4, 8 and 24 hours after dosing. 8 Hours after dosing the animals got access to their regular meal for 30 minutes. Blood was taken for PK follow up (0.5, 1, 2, 4, 8 and 24 hours) and at the time of the CSF sampling, samples for serum analysis were taken. An additional sample for serum analysis was taken 10 days after dosing. The CSF samples were used for measurement of Abeta 1-37, Abeta 1-38, Abeta 1-40 and Abeta 1-42.

Abeta 1-42 [3] = test: Cellular αLisa assay in SKNBE2 cells, Abeta 1-42; assay type: cell-based, human; details: Homo sapiens, SKNBE2, 18 h, incubated for 18 hours, read-out: Cellular αLisa assay in SKNBE2 cells Abeta 42 pIC50 (converted)
How it was run: as §1

Abeta 1-37 = details: Beagle dog, single dose 20 mg/kg, at 24 h

In the case of C[C@]1(c2cccc(NC(=O)c3ccc(Cl)cn3)c2)N=C(N)CO[C@@H]1F (single isomer, unassigned) [Compound 86, (R*,R*)—N-[3-(5-amino-2-fluoro-3-methyl-3,6-dihydro-2H-1,4-oxazin-3-yl)phenyl]-5-chloropyridine-2-carboxamide], the IC50 (Abeta total) is reported as 6.17 nM, the “decrease in Abeta 1-42 in CSF compared to own baseline” value (Abeta 1-42 [1]) is reported as over 90% and the “decrease in Abeta 1-40 in CSF compared to own baseline” value (Abeta 1-40) is reported as over 90%. For the same molecule, the “Aβ42 (% Ctrl)_Mean” value (Aβ42) was 60 % Ctrl, the “Aβtotal (% Ctrl)_Mean” value (Aβtotal) was 55 % Ctrl and the concentration at 24 h ([2]; CSF, at 24 h, read-out: CSF levels) was 45 ng/mL. The concentration at 24 h ([2]; plasma, up to at least 24 h post dosing, read-out: plasma levels) was 1440 ng/mL, the clearance [2] was “slow clearance” and the IC50 (Abeta 1-42 [3]) was 6.92 nM. The “decrease in Abeta 1-37 in CSF compared to own baseline” value (Abeta 1-37) was 72%.
